These results are taken from ChEMBL document CHEMBL1152206, “Vasodilatation effect of farnesylacetones, active constituents of Sargassum siliquastrum, on the basilar and carotid arteries of rabbits” (Bioorg Med Chem Lett, 2008).

As usually defined, the EC50 is the midpoint of the concentration-response curve. Low readings indicate higher potency in that assay, high ones lower potency in that assay.

Experiment [1] in a line: Vasorelaxant activity against depolarization-induced carotid artery constriction in white rabbit. Format: functional, tissue-based, Oryctolagus cuniculus.
Experiment [2] is described as follows: Vasorelaxant activity against depolarization-induced basilar artery constriction in white rabbit. Format: functional, tissue-based, Oryctolagus cuniculus.

In the case of `CC(=O)CC/C=C(\C)CCC/C(C)=C\C(=O)CC(C)C`, the EC50 in experiment [1] is 14.5 µM; in experiment [2], 3.72 µM.

On to `CC(=O)CC/C=C(\C)CCC/C(C)=C/C(=O)CC(C)C`, for which the figures for the EC50 in experiment [1] and in experiment [2] were 13.7 µM and 1.22 µM, respectively.
